Data from US7851474B2, “Dipiperazinyl ketones and related analogues” (Neurogen Corporation, priority 2005, dated 2010).
Where two headings read alike, the source gives them in different places.

Biological target: T1, chimeric human H3 receptor (Homo sapiens, UniProt Q9Y5N1, E19D)
T1 construct: made in house; host or cells: Sf9 insect cells (baculovirus infection); P2 membrane preparation
Test: Chimeric human H3 receptor GTP binding assay (agonist-stimulated GTP-gamma35S binding, Example 7)
Format: biochemical
Method in brief: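 IC50 values come from non-linear regression of dose-response curves of filter-bound GTP-gamma^35S, counted by scintillation. Membranes were from infected Sf9 cells carrying receptor plus G-protein subunits, 35 μg/tube, with 10 μM GDP present.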

[1] = assay of Example 7, "*" in Ki of Table II, read-out: Ki
[2] = assay of Example 7, symbol * in column headed Ki of Table II, read-out: Ki
[3] = Table II, assay of Example 7, "*" in Ki, read-out: Ki
[4] = Table II "Ki", symbol "*": Ki in the assay of Example 7, read-out: Ki
[5] = "*" in Ki of Table II, assay of Example 7, read-out: Ki
[6] = Table II, "*" in Ki, assay of Example 7, read-out: Ki

T1 sequence (Q9Y5N1 with tags, fused parts or gaps E19D): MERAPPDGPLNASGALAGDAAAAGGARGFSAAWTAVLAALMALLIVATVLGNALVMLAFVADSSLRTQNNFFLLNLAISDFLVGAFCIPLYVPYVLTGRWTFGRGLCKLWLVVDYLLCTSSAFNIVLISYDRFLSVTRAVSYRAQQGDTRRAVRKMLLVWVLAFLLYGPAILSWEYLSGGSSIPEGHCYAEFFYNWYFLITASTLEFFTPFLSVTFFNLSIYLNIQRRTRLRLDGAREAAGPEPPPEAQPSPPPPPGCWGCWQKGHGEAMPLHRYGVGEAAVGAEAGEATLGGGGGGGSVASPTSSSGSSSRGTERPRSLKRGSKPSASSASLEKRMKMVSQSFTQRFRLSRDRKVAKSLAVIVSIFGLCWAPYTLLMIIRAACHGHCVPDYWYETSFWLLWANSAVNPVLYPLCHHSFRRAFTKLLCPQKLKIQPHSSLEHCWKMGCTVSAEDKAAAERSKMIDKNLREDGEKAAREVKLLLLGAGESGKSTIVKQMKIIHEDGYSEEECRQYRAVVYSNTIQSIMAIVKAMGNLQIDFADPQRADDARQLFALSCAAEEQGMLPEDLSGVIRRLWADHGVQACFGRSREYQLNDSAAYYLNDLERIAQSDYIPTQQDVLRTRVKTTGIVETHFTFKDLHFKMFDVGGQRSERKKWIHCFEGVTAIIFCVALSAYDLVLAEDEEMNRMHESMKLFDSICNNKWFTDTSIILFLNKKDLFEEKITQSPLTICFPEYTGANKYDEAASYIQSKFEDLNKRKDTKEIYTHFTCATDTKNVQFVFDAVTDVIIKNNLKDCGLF

O=C1CCc2cc(N3CCN(CC(=O)N4CCN(C5CCCC5)CC4)CC3)ccc21 [Compound 1160, 5-{4-[2-(4-cyclopentylpiperazin-1-yl)-2-oxoethyl]piperazin-1-yl}indan-1-one]
Ki [1]: < 1000 nM

CCCN(CCC)C1CCN(CC(=O)N2CCN(C3CCC3)CC2)CC1 [Compound 432, 1-[2-(4-cyclobutylpiperazin-1-yl)-2-oxoethyl]-N,N-dipropylpiperidin-4-amine]
Ki [2]: < 1000 nM

O=C(CN1CCC(N2CCCCC2)CC1)N1CCN(C2CCC2)CC1 [Compound 421, 1′-[2-(4-cyclobutylpiperazin-1-yl)-2-oxoethyl]-1,4′-bipiperidine]
Ki [2]: < 1000 nM

O=C(CN1CCN(c2ccc(-c3ccc4c(c3)OCCO4)nn2)CC1)N1CCN(C2CCC2)CC1 [Compound 1035, 3-{4-[2-(4-cyclobutylpiperazin-1-yl)-2-oxoethyl]piperazin-1-yl}-6-(2,3-dihydro-1,4-benzodioxin-6-yl)pyridazine]
Ki [3]: < 1000 nM

O=C(CN1CCN(c2ccc(-c3cc(F)cc(F)c3)nn2)CC1)N1CCN(C2CCC2)CC1 [Compound 1052, 3-{4-[2-(4-cyclobutylpiperazin-1-yl)-2-oxoethyl]piperazin-1-yl}-6-(3,5-difluorophenyl)pyridazine]
Ki [3]: < 1000 nM

O=C(CN1CCN(c2cnc(-c3ccc(Cl)cc3)cn2)CC1)N1CCN(C2CCC2)CC1 [Compound 904, 2-(4-chlorophenyl)-5-{4-[2-(4-cyclobutylpiperazin-1-yl)-2-oxoethyl]piperazin-1-yl}pyrazine]
Ki [4]: < 1000 nM

CC(C)N1CCN(C(=O)CN2CCN(c3ccc([N+](=O)[O-])cc3)CC2)CC1 [Compound 851, 1-isopropyl-4-{[4-(4-nitrophenyl)piperazin-1-yl]acetyl}piperazine]
Ki [4]: < 1000 nM

O=C(NC1CCCCCC1)c1ccc(N2CCN(CC(=O)N3CCN(C4CCC4)CC3)CC2)cc1 [Compound 1143, 4-{4-[2-(4-cyclobutylpiperazin-1-yl)-2-oxoethyl]piperazin-1-yl}-N-cycloheptylbenzamide]
Ki [1]: < 1000 nM

O=C(CN1CCC2(CC1)CN(Cc1ccccc1)c1cccnc12)N1CCN(C2CCC2)CC1 [Compound 490, 1′-benzyl-1-[2-(4-cyclobutylpiperazin-1-yl)-2-oxoethyl]-1′,2′-dihydrospiro[piperidine-4,3′-pyrrolo[3,2-b]pyridine]]
Ki [5]: < 1000 nM

Cc1cccc(-c2ccc(N3CCN(CC(=O)N4CCN(C5CCC5)CC4)CC3)nn2)c1 [Compound 1011, 3-{4-[2-(4-cyclobutylpiperazin-1-yl)-2-oxoethyl]piperazin-1-yl}-6-(3-methylphenyl)pyridazine]
Ki [3]: < 1000 nM

CCC1CCCCN1C(=O)c1ccc(N2CCN(CC(=O)N3CCN(C4CCC4)CC3)CC2)cc1 (stereo not shown) [Compound 643, 1-cyclobutyl-4-[(4-{4-[(2-ethylpiperidin-1-yl)carbonyl]phenyl}piperazin-1-yl)acetyl]piperazine]
Ki [6]: < 1000 nM

Cc1ccc(-c2cnc(N3CCN(CC(=O)N4CCN(C5CCC5)CC4)CC3)cn2)cc1C [Compound 928, 2-{4-[2-(4-cyclobutylpiperazin-1-yl)-2-oxoethyl]piperazin-1-yl}-5-(3,4-dimethylphenyl)pyrazine]
Ki [4]: < 1000 nM

Cc1noc(-c2ccc(N3CCN(CC(=O)N4CCN(C5CCC5)CC4)CC3)cc2)n1 [Compound 594, 1-cyclobutyl-4-({4-[4-(3-methyl-1,2,4-oxadiazol-5-yl)phenyl]piperazin-1-yl}acetyl)piperazine]
Ki [6]: < 1000 nM

O=C(OCc1ccccc1)c1cccc(N2CCN(CC(=O)N3CCN(C4CCC4)CC3)CC2)c1 [Compound 1193, benzyl 3-{4-[2-(4-cyclobutylpiperazin-1-yl)-2-oxoethyl]piperazin-1-yl}benzoate]
Ki [1]: < 1000 nM

CCc1ccc(-c2cnc(N3CCN(CC(=O)N4CCN(C5CCC5)CC4)CC3)cn2)cc1 [Compound 930, 2-{4-[2-(4-cyclobutylpiperazin-1-yl)-2-oxoethyl]piperazin-1-yl}-5-(4-ethylphenyl)pyrazine]
Ki [4]: < 1000 nM

CCCN(CC1CC1)C1CCN(CC(=O)N2CCN(C(C)CC)CC2)CC1 (stereo not shown) [Compound 449, 1-[2-(4-sec-butylpiperazin-1-yl)-2-oxoethyl]-N-(cyclopropylmethyl)-N-propylpiperidin-4-amine]
Ki [5]: < 1000 nM

CC(C)N1C(=O)C2(CCN(CC(=O)N3CCN(C4CCC4)CC3)CC2)c2ccccc21 [Compound 422, 1′-[2-(4-cyclobutylpiperazin-1-yl)-2-oxoethyl]-1-isopropylspiro[indole-3,4′-piperidin]-2(1H)-one]
Ki [2]: < 1000 nM

CCN1CCN(C(=O)CN2CCN(c3ccc(C(F)(F)F)cc3)CC2)CC1 [Compound 842, 1-ethyl-4-({4-[4-(trifluoromethyl)phenyl]piperazin-1-yl}acetyl)piperazine]
Ki: < 1000 nM

CCC(C)N1CCN(C(=O)CN2CCN(c3cccc(C)c3)CC2)CC1 (stereo not shown) [Compound 876, 1-sec-butyl-4-{[4-(3-methylphenyl)piperazin-1-yl]acetyl}piperazine]
Ki [4]: < 1000 nM

O=C(CN1CCC2(CC1)CC(=O)N(Cc1ccccc1)C2=O)N1CCN(C2CCC2)CC1 [Compound 982, 2-benzyl-8-[2-(4-cyclobutylpiperazin-1-yl)-2-oxoethyl]-2,8-diazaspiro[4.5]decane-1,3-dione]
Ki [3]: < 1000 nM

CCC(C)N1CCN(C(=O)CN2CCN(c3ccc(Cl)cc3)CC2)CC1 (stereo not shown) [Compound 879, 1-sec-butyl-4-{[4-(4-chlorophenyl)piperazin-1-yl]acetyl}piperazine]
Ki [4]: < 1000 nM

O=C(CN1CCN(c2ccc([N+](=O)[O-])cc2)CC1)N1CCN(C2CCCC2)CC1 [Compound 840, 1-cyclopentyl-4-{[4-(4-nitrophenyl)piperazin-1-yl]acetyl}piperazine]
Ki [4]: < 1000 nM

COc1cccc(OC)c1-c1ccc(N2CCN(CC(=O)N3CCN(C4CCC4)CC3)CC2)cc1 [Compound 695, 1-cyclobutyl-4-{[4-(2′,6′-dimethoxybiphenyl-4-yl)piperazin-1-yl]acetyl}piperazine]
Ki [6]: < 1000 nM

CSc1cccc(-c2cnc(N3CCN(CC(=O)N4CCN(C5CCC5)CC4)CC3)cn2)c1 [Compound 938, 2-{4-[2-(4-cyclobutylpiperazin-1-yl)-2-oxoethyl]piperazin-1-yl}-5-[3-(methylthio)phenyl] pyrazine]
Ki [4]: < 1000 nM

CC(C)c1ccccc1-c1cnc(N2CCN(CC(=O)N3CCN(C4CCC4)CC3)CC2)cn1 [Compound 971, 2-{4-[2-(4-cyclobutylpiperazin-1-yl)-2-oxoethyl]piperazin-1-yl}-5-(2-isopropylphenyl)pyrazine]
Ki [3]: < 1000 nM

COc1ccccc1-c1ccc(N2CCN(CC(=O)N3CCN(C4CCC4)CC3)CC2)cc1 [Compound 712, 1-cyclobutyl-4-{[4-(2′-methoxybiphenyl-4-yl)piperazin-1-yl]acetyl}piperazine]
Ki [6]: < 1000 nM

CSc1cccc(-c2ccc(N3CCN(CC(=O)N4CCN(C5CCC5)CC4)CC3)nn2)c1 [Compound 1025, 3-{4-[2-(4-cyclobutylpiperazin-1-yl)-2-oxoethyl]piperazin-1-yl}-6-[3-(methylthio)phenyl] pyridazine]
Ki [3]: < 1000 nM

CC(=O)c1ccc(N2CCN(C(C)C(=O)N3CCN(C4CCCC4)CC3)CC2)cc1 (stereo not shown) [Compound 323, 1-(4-{4-[2-(4-cyclopentylpiperazin-1-yl)-1-methyl-2-oxoethyl]piperazin-1-yl}phenyl)ethanone]
Ki [2]: < 1000 nM

CCC(C)N1CCN(C(=O)CN2CCN(c3ccc(F)cc3)CC2)CC1 (stereo not shown) [Compound 880, 1-sec-butyl-4-{[4-(4-fluorophenyl)piperazin-1-yl]acetyl}piperazine]
Ki [4]: < 1000 nM

O=C(NC1CCN(CC(=O)N2CCN(C3CCC3)CC2)C1)C1CCCCC1 (stereo not shown) [Compound 1256, N-{1-[2-(4-cyclobutylpiperazin-1-yl)-2-oxoethyl]pyrrolidin-3-yl} cyclohexanecarboxamide]
Ki [1]: < 1000 nM

CCc1cccc(-c2cnc(N3CCN(CC(=O)N4CCN(C5CCC5)CC4)CC3)cn2)c1 [Compound 932, 2-{4-[2-(4-cyclobutylpiperazin-1-yl)-2-oxoethyl]piperazin-1-yl}-5-(3-ethylphenyl)pyrazine]
Ki [4]: < 1000 nM

CC(C)N1CCN(C(=O)CN2CCC(N(C)C)C2)CC1 (stereo not shown) [Compound 446, 1-[2-(4-isopropylpiperazin-1-yl)-2-oxoethyl]-N,N-dimethylpyrrolidin-3-amine]
Ki [5]: < 1000 nM

CN(C)c1ccc(-c2cnc(N3CCN(CC(=O)N4CCN(C5CCC5)CC4)CC3)cn2)cc1 [Compound 1097, 4-(5-{4-[2-(4-cyclobutylpiperazin-1-yl)-2-oxoethyl]piperazin-1-yl}pyrazin-2-yl)-N,N-dimethylaniline]
Ki [3]: < 1000 nM

O=C(O)c1ccc(N2CCN(CC(=O)N3CCN(C4CCC4)CC3)CC2)cc1 [Compound 1120, 4-{1-[2-(4-cyclobutylpiperazin-1-yl)-2-oxoethyl]piperazin-1-yl}benzoic acid]
Ki [3]: < 1000 nM

O=C(NC1CCN(CC(=O)N2CCN(C3CCC3)CC2)C1)c1ccc2ccccc2c1 (stereo not shown) [Compound 1233, N-{1-[2-(4-cyclobutylpiperazin-1-yl)-2-oxoethyl]pyrrolidin-3-yl}-2-naphthamide]
Ki [1]: < 1000 nM

Cc1ccc(C(=O)NC2CCN(CC(=O)N3CCN(C4CCC4)CC3)C2)cc1 (stereo not shown) [Compound 1231, N-{1-[2-(4-cyclobutylpiperazin-1-yl)-2-oxoethyl]pyrrolidin-3-yl}-4-methylbenzamide]
Ki [1]: < 1000 nM

COC[C@@H]1CCCN1C(=O)c1cccc(N2CCN(CC(=O)N3CCN(C4CCC4)CC3)CC2)c1 [Compound 745, 1-cyclobutyl-4-{[4-(3-{[(2S)-2-(methoxymethyl)pyrrolidin-1-yl]car-bonyl}phenyl)piperazin-1-yl]acetyl}piperazine]
Ki [6]: < 1000 nM
